From article PMC8514546, “Structural basis of the P4B ATPase lipid flippase activity” (Nature Communications, 2021)

Legend:
Neo1 [1] = target: T1, Neo1 (Saccharomyces cerevisiae, UniProt P40527); test: lipid-stimulated ATP hydrolysis, released phosphate by BIOMOL Green; assay type: biochemical; conditions: 0.25 mM ATP, 10 mM MgCl2, pH 7.4, 37 °C, LMNG/CHS, lipid in cholate; transport substrate, acyl chain not stated
T1 construct: full length (1151 residues), N-terminal triple FLAG tag, overexpressed in S. cerevisiae from pRS423 with GAP promoter; monomer, purified in LMNG/CHS
T1 sequence (P40527 1-1151): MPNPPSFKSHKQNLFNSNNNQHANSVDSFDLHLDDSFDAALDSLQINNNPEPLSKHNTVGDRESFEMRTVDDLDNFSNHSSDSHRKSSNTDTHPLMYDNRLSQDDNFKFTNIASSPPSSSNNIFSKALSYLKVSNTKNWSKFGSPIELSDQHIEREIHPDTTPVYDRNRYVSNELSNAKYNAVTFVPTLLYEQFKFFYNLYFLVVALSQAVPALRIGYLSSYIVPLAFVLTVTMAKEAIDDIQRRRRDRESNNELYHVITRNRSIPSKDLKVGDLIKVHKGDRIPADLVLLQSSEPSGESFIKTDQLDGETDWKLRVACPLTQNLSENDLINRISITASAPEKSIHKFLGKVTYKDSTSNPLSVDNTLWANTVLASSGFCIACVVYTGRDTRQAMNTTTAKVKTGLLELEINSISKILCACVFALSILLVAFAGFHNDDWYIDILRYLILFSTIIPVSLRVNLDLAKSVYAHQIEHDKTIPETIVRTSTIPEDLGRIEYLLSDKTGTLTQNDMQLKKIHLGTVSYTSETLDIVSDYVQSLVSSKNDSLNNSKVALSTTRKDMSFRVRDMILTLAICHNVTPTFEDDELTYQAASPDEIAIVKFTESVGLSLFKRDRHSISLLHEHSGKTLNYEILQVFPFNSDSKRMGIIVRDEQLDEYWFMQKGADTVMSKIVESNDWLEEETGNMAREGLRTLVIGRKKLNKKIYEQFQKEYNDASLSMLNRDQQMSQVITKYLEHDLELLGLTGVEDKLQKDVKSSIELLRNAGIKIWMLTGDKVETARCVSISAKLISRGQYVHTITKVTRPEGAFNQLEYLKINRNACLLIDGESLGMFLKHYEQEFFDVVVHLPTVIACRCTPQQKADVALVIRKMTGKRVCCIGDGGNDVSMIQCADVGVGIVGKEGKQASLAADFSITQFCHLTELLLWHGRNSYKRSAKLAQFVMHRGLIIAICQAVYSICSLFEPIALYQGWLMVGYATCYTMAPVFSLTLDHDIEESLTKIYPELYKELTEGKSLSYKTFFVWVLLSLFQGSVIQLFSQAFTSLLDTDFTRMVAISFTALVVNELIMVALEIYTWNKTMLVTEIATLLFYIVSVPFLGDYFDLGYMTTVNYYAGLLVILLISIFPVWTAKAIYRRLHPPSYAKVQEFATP

Neo1 [2] = target: T1, Neo1; test: cryo-EM structure, […] Å; assay type: binding; conditions: E1-ATP state; AMPPCP at the N and P domain interface; 1 mM (Results) or 2 mM (Methods) AMPPCP, 5 mM MgCl2

Row | Compound | Km (Neo1 [1]) [µM] | cryo-EM structure, 5.6 Å (Neo1 [2])
1 | lyso-PS | 50.3 ± 8.8 | 
2 | Nc1ncnc2c1ncn2[C@@H]1O[C@H](COP(=O)(O)OP(=O)(O)CP(=O)(O)O)[C@@H](O)[C@H]1O [AMPPCP] |  | the AMPPCP density is clear and the molecule stabilizes the interface between the N and P domains
